Values of other authors, collected in patent publication US20110288064A1, “METHODS FOR TREATING DISORDERS ASSOCIATED WITH […] IN A MAMMAL” (priority 2005, published 2011).
Entries after “also recorded” stand apart in the source; their conditions may differ. Read-outs that look alike come from different tables or passages of the source.

Legend:
[1] = hoFH patients, ezetimibe 10 mg/day added to maximal statin regimen (atorvastatin or simvastatin 80 mg/day)
[2] = animal model for homozygous FH, for example at 25 mg/day
[3] = patients, 25 mg/day monotherapy
[4] = clinical studies

O=C1[C@H](CC[C@H](O)c2ccc(F)cc2)[C@@H](c2ccc(O)cc2)N1c1ccc(F)cc1 [ezetimibe]
total reduction of LDL-C levels [1]: 27%

O=C(NC1CCN(CCCCC2(C(=O)NCC(F)(F)F)c3ccccc3-c3ccccc32)CC1)c1ccccc1-c1ccc(C(F)(F)F)cc1 [BMS-201038, N-(2,2,2-Trifluorethyl)-9-[4-[4-[[[4′-(trifluoromethyl)[1,1′biphenyl]-2-Yl]carbonyl]amino]-1-piperidinyl]butyl]9H-fluorene-9-carboxamide]
plasma cholesterol levels [2]: effectively reduced plasma cholesterol levels in a dose dependent manner | adverse events [3]: gastrointestinal disturbances, abnormalities in liver function, and hepatic steatosis; also recorded: gastrointestinal disorders, abnormalities in liver function and/or hepatic steatosis

Cc1cc(C)c2c3ccccc3n(Cc3ccc([C@@H](C(=O)N[C@H](CO)c4ccccc4)C4CCCC4)cc3)c2n1 [implitapide, (2S)-2-cyclopentyl-2-[4-[(2,4-dimethyl-9H-pyrido[2,3-b]indol-9-yl)methyl]phenyl]-N-[(1S)-2-hydroxy-1-phenylethyl]ethanamide]
therapeutic efficacy ([4]; 80 mg/day or greater): therapeutically effective | adverse events ([4]; 80 mg/day or greater (80 mg/day, 160 mg/day)): gastrointestinal disturbances, abnormalities in liver function, and hepatic steatosis; also recorded: gastrointestinal disorders, abnormalities in liver function and/or hepatic steatosis
